Measurements published in US20070020234A1, “Inhibition of tumor angiogenesis by combination of thrombospondin-1 and inhibitors of vascular endothelial growth factor” (priority 2003, published 2007).
Entries after “also recorded” stand apart in the source; their conditions may differ.

Assays:
VEGF expression = test: Northern blot of VEGF expression; assay type: cell-based, human; conditions: for VEGF expression after HGF/SF treatment: HGF/SF 200 units/ml; for VEGF expression in the absence of HGF/SF induction: inhibitor 24 hours, LF at 1, 3 or 9 μg/ml (FIG. 2D); for expression of VEGF induced by HGF/SF: inhibitor followed by HGF/SF for 24 hours; for VEGF expression (up-regulation by HGF/SF): SK-LMS-1 and MDA-MB-231 cells (FIGS. 2B/1, 2B/2)
Description: (§1) FIG. 1A-1C. HGF/SF up-regulates VEGF and down-regulates TSP-1 expression in SK-LMS-1 cells (FIG. 1A) and MDA-MB-231 cells (FIG. 1B) and HUVEC cells (FIG. 1C). Total RNAs were prepared from SK-LMS-1 cells, MDA-MB-231 cells or HUVEC with or without treatment of recombinant human HGF/SF (200 units/ml) at the indicated time points after stimulation. Total RNAs were also prepared from the SK/HGF cell line, a long-term culture derivative of SK-LMS-1 cells that is autocrine for human HGF/SF (15). Northern Blot was probed with ^32P-radiolabeled TSP-1, VEGF or G3PDH cDNA fragment, respectively. For HUVEC, treatment of recombinant human HGF/SF (200 units/ml) was for 24 hours in the presence or absence of fetal bovine serum (FBS) and Northern Blot analyses were performed using ^32P-radiolabelled probe for human TSP-1, VEGF or GAPDH, respectively. TSP-1 expression in HUVEC cells was decreased in response to HGF/SF treatment. However, VEGF expression was undetectable with or without HGF/SF treatment.
(§2) FIG. 2A: HGF/SF induces activation of MAP kinase and PI3 kinase pathways in SK-LMS-1 cells and MDA-MB-231 cells. Serum-starved cells were treated with or without DMSO (control), PD98059 (80 μM), U0126 (40 μM) or LY294002 (40 μM) for 1 hour, followed by HGF/SF stimulation for 15 minutes (A time point good for observing all the tyrosine phosphorylation statuses). Whole cell extracts were prepared and the state of Met phosphorylation was detected by immunoprecipitation with anti-human Met antibody, followed by Western blot with anti-Phosphotyrosine (and/or anti-human Met antibody). For detection of Erk and Akt, Western blots were probed with anti-phospho p44/42 MAPK, anti-p44/42 MAPK, anti-phospho Akt (Ser473) or anti-Akt antibodies, respectively. FIG. 2B: Negative regulation of TSP-1 expression occurs primarily through the MAP kinase pathway, while positive regulation of VEGF expression occurs through MAP kinase and PI3 kinase pathway. Total RNAs were prepared from cells with or without inhibitor treatment and/or HGF/SF treatment. Northern Blot analyses were performed as described in FIG. 1A-caption. […] Up-regulation of VEGF was inhibited by PD98059, U0126 as well as LY294002. […]: VEGF but not TSP-1 expression was regulated by Stat3 signaling. Total RNAs were prepared from SK/HGF cells with or without overexpression of a dominant negative form of Stat3, Stat3 (17). […] FIG. 2D: LF increases TSP-1 and decreases VEGF expression in MDA-MB-231 human breast cancer cells. Cells were treated with or without indicated inhibitors for 24 hours and then total RNAs were prepared. Northern Blot analyses were performed using ^32P-radiolabelled probe for human TSP-1, VEGF or GAPDH, respectively.
(§3) VEGF was also elevated in long term cultures of SK-LMS-1 cells autocrine for HGF/SF (SK/HGF, 15) (FIG. 1A). […] This effect was seen as early as 6 hours after HGF treatment and continued to 48 hours. More dramatically, TSP-1 expression was eliminated in the SK/HGF cell line.
(§4) HGF/SF, acting through its tyrosine kinase receptor, Met, is known to activate several intracellular signaling pathways, including MAP kinase, PI3 kinase and Stat3 (1, 16). The present inventors asked which pathways might be involved in regulating VEGF and TSP-1 expression. The present inventors treated SK-LMS-1 and MDA-MB-231 cells with (or without) various inhibitors for one hour, followed by HGF/SF stimulation for 15 minutes (FIGS. 2A/1 and 2A/2). Met receptor is tyrosine-phosphorylated in response to HGF/SF, followed by the activation of downstream targets of Erk p44/42 MAPK) and Akt/PI3 kinase. […] RNA samples from SK-LMS-1 and MDA-MB-231 cells treated with individual inhibitors followed by HGF/SF treatment for 24 hours were analyzed by Northern Blot analyses. HGF/SF-induced shut off of TSP-1 was blocked by PD98059 or U0126 but was not affected by LY294002 (FIGS. 2B/1-2B/2), nor by overexpression of Stat3B, a dominant-negative form of Stat3 (FIG. 2C) (17). […]

TSP-1 expression = test: Northern blot of TSP-1 expression; assay type: cell-based, human; conditions: for TSP-1 expression relative to basal level after inhibitor treatment: MDA-MB-231 cells (FIG. 2B/2); for TSP-1 expression in the absence of HGF/SF induction: inhibitor 24 hours, LF at 1, 3 or 9 μg/ml (FIG. 2D); for HGF/SF-induced shut off (down-regulation) of TSP-1: SK-LMS-1 and MDA-MB-231 cells, inhibitor followed by HGF/SF for 24 hours
Description: as §1, §2, §3, §4

Erk (p44/42 MAPK) = test: Western blot of Erk (p44/42 MAPK) activation after HGF/SF stimulation; assay type: cell-based, human; conditions: for constitutive level of MAP kinase activity: MDA-MB-231 cells (FIG. 2A/2); for activation of Erk in response to HGF/SF: SK-LMS-1 and MDA-MB-231 cells, inhibitor 1 hour (PD98059 80 μM, U0126 40 μM), then HGF/SF 15 minutes
Description: as §2
HGF/SF, acting through its tyrosine kinase receptor, Met, is known to activate several intracellular signaling pathways, including MAP kinase, PI3 kinase and Stat3 (1, 16). The present inventors asked which pathways might be involved in regulating VEGF and TSP-1 expression. The present inventors treated SK-LMS-1 and MDA-MB-231 cells with (or without) various inhibitors for one hour, followed by HGF/SF stimulation for 15 minutes (FIGS. 2A/1 and 2A/2). Met receptor is tyrosine-phosphorylated in response to HGF/SF, followed by the activation of downstream targets of Erk p44/42 MAPK) and Akt/PI3 kinase. […] RNA samples from SK-LMS-1 and MDA-MB-231 cells treated with individual inhibitors followed by HGF/SF treatment for 24 hours were analyzed by Northern Blot analyses. HGF/SF-induced shut off of TSP-1 was blocked by PD98059 or U0126 but was not affected by LY294002 (FIGS. 2B/1-2B/2), nor by overexpression of Stat3B, a dominant-negative form of Stat3 (FIG. 2C) (17). […] In MDA-MB-231 cells, the present inventors observed a dramatic effect from the MEK MAP kinase inhibitors on TSP-1 (FIG. 2B/2).

SK/HGF cells = test: Cell proliferation and anchorage-independent growth in vitro; assay type: cell-based, human; conditions: TSP-1 overexpression compared with parental SK/HGF cells in vitro
Source text: FIGS. 5A and 5B are graphs showing that overexpression of TSP-1 has no effect on cell proliferation or anchorage-independent growth compared the parental SK/HGF cells in vitro.
TSP-1 was overexpressed in SK/HGF cells to generate SK/HGF-TSP1 cells (FIG. 3A). Overexpression of TSP-1 has no effect on cell proliferation or anchorage-independent growth compared the parental SK/HGF cells in vitro (FIGS. 5A-5B). To test whether TSP-1 influences tumorigenicity, the present inventors SK/HGF and SK/HGF-TSP1 cells were subcutaneously implanted in athymic nude mice, and their tumor growth rates were compared. At early times, no growth differences were observed between the SK/HGF and SK/HGF-TSP1 groups. However, when the tumors grew to a certain size, differences between became more apparent (Student's t test p<0.025). […] TSP-1 protein expression was confirmed in the SK/HGF-TSP1 tumor group by Western blot analysis (FIG. 3D).

SK/HGF tumor xenografts = test: Subcutaneous tumor growth of SK/HGF-TSP1 versus SK/HGF cells in athymic nude mice; assay type: in vivo; conditions: TSP-1 overexpression in SK/HGF cells implanted subcutaneously in athymic nude mice; p<0.025
Source text: FIG. 3A-3D. TSP-1 inhibits HGF/SF-induced tumor growth in vivo. FIG. 3A: TSP-1 was ectopically expressed in SK/HGF cells, establishing the SK/HGF-TSP 1 cell line. The expression of TSP-1 in SK/HGF-TSP1 cells was confirmed by Northern blot analysis. FIG. 3B: Tumor growth of SK-LMS cells and the influence of TSP-1 overexpression. SK-LMS-1 control cells, SK/HGF control cells and SK/HGF-TSP 1 cells (clone 26) were subcutaneously implanted in athymic nude mice, respectively. The animals were monitored for tumor growth and tumor volumes (Tvol) were measured twice a week. The Tvol values represent an average of four mice for each group (P<0.025). FIG. 3C: Visualization of the tumors at sacrifice. FIG. 3D: TSP-1 protein in tumor xenografts is derived from SK/HGF-TSP1 cells. Cell extracts were prepared from fresh tumors and TSP-1 protein was detected by anti-TSP-1 antibody under denatured condition.
TSP-1 was overexpressed in SK/HGF cells to generate SK/HGF-TSP1 cells (FIG. 3A). Overexpression of TSP-1 has no effect on cell proliferation or anchorage-independent growth compared the parental SK/HGF cells in vitro (FIGS. 5A-5B). To test whether TSP-1 influences tumorigenicity, the present inventors SK/HGF and SK/HGF-TSP1 cells were subcutaneously implanted in athymic nude mice, and their tumor growth rates were compared. […]

[1] = test system: tumor angiogenesis (CD31-positive vessels); test: CD31 immunohistochemical staining of blood vessels in tumor sections; assay type: in vivo, athymic nude mice; conditions: SK/HGF-TSP1 versus SK/HGF tumors; P<0.01
Source text: FIGS. 4A and 4B/1-4B/6 are a graph and photomicrographs showing that TSP-1 inhibits HGF/SF-induced tumor angiogenesis. […] Three fields (10× magnification) from each stained tumor section were photographed and the numbers of CD31-positive vessels (brown staining) were scored. The numbers represent the average number of blood vessels in sections from four tumors for each group (P<0.01).
To test whether the inhibition of tumor growth by TSP-1 was due to an extrinsic effect by preventing tumor angiogenesis, the present inventors performed immunohistochemical staining using antibodies against mouse endothelial cell surface marker CD31 to detect the number of blood vessels in SK/HGF and SK/HGF-TSP-1 tumor sections.

VEGF = conditions: cited from earlier work
[2] = HUVEC, HGF/SF 200 units/ml for 24 hours

Compound: HGF/SF: recombinant human hepatocyte growth factor/scatter factor, ligand of the Met receptor
- VEGF expression with or without HGF/SF treatment (VEGF expression; [2]): undetectable
- VEGF expression after HGF/SF treatment (VEGF expression; MDA-MB-231 cells, persisted for 48 hours): levels of VEGF increased
- VEGF expression after HGF/SF treatment (VEGF expression; SK-LMS-1 cells, up to 48 hours): induced VEGF
- TSP-1 expression after HGF/SF treatment (TSP-1 expression; [2]): decreased
- TSP-1 expression after HGF/SF treatment (TSP-1 expression; MDA-MB-231 cells, 24 and 48 hours after HGF treatment): down-regulation of TSP-1
- TSP-1 expression after HGF/SF treatment (TSP-1 expression; SK-LMS-1 cells, HGF/SF 200 units/ml, 6 to 48 hours): significant decrease in TSP-1 expression

Compound: COc1cccc(-c2cc(=O)c3ccccc3o2)c1N [PD98059]
- constitutive level of MAP kinase activity (Erk (p44/42 MAPK)): inhibited
- activation of Erk in response to HGF/SF (Erk (p44/42 MAPK)): blocked the activation of Erk
- VEGF expression in the absence of HGF/SF induction (VEGF expression; MDA-MB-231 cells): down-regulation of VEGF
- expression of VEGF induced by HGF/SF (VEGF expression; MDA-MB-231 cells): suppressed
- VEGF expression (up-regulation by HGF/SF) (VEGF expression): inhibited
- expression of VEGF induced by HGF/SF (VEGF expression; SK-LMS-1 cells): only slightly
- TSP-1 expression relative to basal level after inhibitor treatment (TSP-1 expression): higher than the basal level
- TSP-1 expression in the absence of HGF/SF induction (TSP-1 expression; MDA-MB-231 cells): up-regulation of TSP-1
- HGF/SF-induced shut off (down-regulation) of TSP-1 (TSP-1 expression): blocked; also recorded: inhibited

Compound: TSP-1: thrombospondin-1, angiogenesis antagonist; tested by ectopic overexpression in SK/HGF cells
- cell proliferation or anchorage-independent growth (SK/HGF cells): no effect
- HGF/SF-dependent tumor growth (SK/HGF tumor xenografts): partially inhibited
- neovascularization (number of CD31-positive vessels) in tumors [1]: Decreased neovascularization

Compound: N#CC(=C(/N)Sc1ccccc1N)/C(C#N)=C(\N)Sc1ccccc1N [U0126]
- constitutive level of MAP kinase activity (Erk (p44/42 MAPK)): inhibited
- activation of Erk in response to HGF/SF (Erk (p44/42 MAPK)): blocked the activation of Erk
- VEGF expression in the absence of HGF/SF induction (VEGF expression; MDA-MB-231 cells): down-regulation of VEGF
- expression of VEGF induced by HGF/SF (VEGF expression; MDA-MB-231 cells): suppressed
- VEGF expression (up-regulation by HGF/SF) (VEGF expression): inhibited
- expression of VEGF induced by HGF/SF (VEGF expression; SK-LMS-1 cells): only slightly
- TSP-1 expression relative to basal level after inhibitor treatment (TSP-1 expression): higher than the basal level
- TSP-1 expression in the absence of HGF/SF induction (TSP-1 expression; MDA-MB-231 cells): up-regulation of TSP-1
- HGF/SF-induced shut off (down-regulation) of TSP-1 (TSP-1 expression): blocked; also recorded: inhibited

Compound: VEGF-Trap: soluble decoy VEGF receptor fused to IgG; high-affinity VEGF blocker
- tumor growth and vascularization in vivo (VEGF; Holash et al.): effectively suppressed tumor growth and vascularization
- vasculature in established xenografts (VEGF; Huang et al., followed by tumor regression including lung micrometastases): abolished mature, preexisting vasculature
